Data taken from patent US11504425B2, “Amphiphilic oligodeoxynucleotide conjugates as adjuvant enhancers” (WAYNE STATE UNIVERSITY, priority 2019, dated 2022).
Entries after “also recorded” stand apart in the source; their conditions may differ. Oligonucleotides are written 5' to 3', each unit as a sugar letter and its base; * is a phosphorothioate linkage, no mark a phosphodiester; rarer units and linkages stand in square brackets, end groups in braces. Plain capitals give the bases only. {Lipid} = lipid portion of the amphiphilic conjugate (lipid variable, as described in specification); d = 2'-deoxy (DNA)

How the values were obtained:
[1] = tested on: TLR7-mediated NF-κB activation in Raw-Blue reporter cells; assay: Raw-Blue NF-κB/SEAP reporter stimulation with TLR7 ligands; format: cell-based, murine; conditions: for IMQ-induced NF-κB activation (SEAP) in the presence of the ODN: 2 μM IMQ + 1 μM ODN, FBS-supplemented medium
Experimental: (§1) HEK-Blue™-mTLR7, mTLR8, hTLR7, hTLR8, and RAW-Blue™ cells were purchased from InvivoGen and were used to evaluate bioactivities of lipo ODNs and TLR 7/8 ligands in vitro. All these cell lines were cultured with DMEM supplemented with 10% FBS, 1% P/S and 100 μg/mL Normocin at 37° C. with 5% CO2. […] After incubating for 24 h, SEAP levels were quantified by developing supernatants with QuantiBlue™ substrate for 1 h and reading absorption at 620 nm, following manufacturer's instructions.
Following subcutaneous injection, lipid-modified oligonucleotides efficiently accumulated in the draining lymph nodes by binding and trafficking with endogenous albumin protein (Liu et al., Nature 507, 519-522, 2014; Yu et al., Pharmaceutical Res. 35: 56, 2018). Inspired by that prior work, the current study was aimed to take advantage of lipid functionalization in other oligonucleotide-based TLR inhibitors to further expand the pool of lipo suppressive ODNs. The therapeutic efficacy of lipid-modified IRS 954 in suppressing TLR7-mediated immune activation and alleviating the severity of SLE was investigated. Imiquimod (IMQ; FIG. 1A) was first used to stimulate TLR7-mediated immune activation in Raw-Blue reporter cells. For the initial experiments, Raw Blue cells-a murine RAW 264.7 macrophage cell line which expresses secreted embryonic alkaline phosphatase (SEAP) under the control of an NF-κB and AP-1, were used. Raw Blue cells express many toll-like receptors, including TLR-7, TLR-8, and TLR-9. The immunosuppressive capability of unmodified or lipo IRS 954 was determined by quantifying the level of TLR7-induced NF-κB activation.

human TLR7 (hTLR7) = target: T1, human TLR7 (hTLR7) (Homo sapiens, UniProt Q9NYK1); assay: HEK hTLR7 reporter cells NF-κB/SEAP; format: cell-based; conditions: 2 μM IMQ + 1 μM ODN, 24 h
T1 construct: host or cells: HEK-Blue-hTLR7 (HEK293)
T1 sequence (Q9NYK1 27-1049): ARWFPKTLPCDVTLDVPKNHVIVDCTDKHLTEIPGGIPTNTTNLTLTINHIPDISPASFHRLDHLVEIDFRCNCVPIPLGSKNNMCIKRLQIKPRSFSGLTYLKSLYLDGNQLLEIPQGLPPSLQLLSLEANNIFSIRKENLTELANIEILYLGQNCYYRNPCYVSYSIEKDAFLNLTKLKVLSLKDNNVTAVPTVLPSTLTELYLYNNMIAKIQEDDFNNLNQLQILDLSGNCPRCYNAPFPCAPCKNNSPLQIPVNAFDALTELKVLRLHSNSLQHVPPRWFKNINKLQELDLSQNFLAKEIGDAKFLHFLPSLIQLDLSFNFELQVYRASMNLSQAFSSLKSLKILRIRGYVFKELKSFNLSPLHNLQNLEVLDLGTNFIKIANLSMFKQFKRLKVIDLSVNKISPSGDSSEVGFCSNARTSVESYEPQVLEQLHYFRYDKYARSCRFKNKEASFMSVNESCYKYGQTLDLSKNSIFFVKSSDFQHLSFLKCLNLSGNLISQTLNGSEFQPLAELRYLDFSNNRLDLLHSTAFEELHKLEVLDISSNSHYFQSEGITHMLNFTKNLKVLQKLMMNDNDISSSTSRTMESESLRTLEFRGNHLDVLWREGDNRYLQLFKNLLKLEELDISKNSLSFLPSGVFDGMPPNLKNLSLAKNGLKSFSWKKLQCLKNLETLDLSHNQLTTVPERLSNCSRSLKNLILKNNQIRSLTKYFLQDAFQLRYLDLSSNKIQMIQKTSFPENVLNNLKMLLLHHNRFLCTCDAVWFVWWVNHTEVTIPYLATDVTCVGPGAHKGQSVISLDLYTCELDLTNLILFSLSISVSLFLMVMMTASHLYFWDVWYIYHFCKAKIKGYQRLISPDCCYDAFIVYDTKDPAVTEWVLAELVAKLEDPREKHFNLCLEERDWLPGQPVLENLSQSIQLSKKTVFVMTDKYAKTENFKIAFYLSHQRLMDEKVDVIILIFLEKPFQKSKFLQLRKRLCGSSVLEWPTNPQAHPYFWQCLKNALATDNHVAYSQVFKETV
Experimental: as §1
(§2) HEK293 cells transfected with human TLR7 or 8 were used. The cells were stimulated with IMQ in the presence of several inhibitory oligonucleotides reported in the literature. […] In contrast, all the unmodified ODNs maintained their inhibitory function, reducing the NF-κB secretion to basal levels (FIG. 8A). We then plotted the IMQ dose response curve in human TLR-7 transfected HEK293 cells.

human TLR8 (hTLR8) = target: T2, human TLR8 (hTLR8) (Homo sapiens, UniProt Q9NR97); assay: HEK hTLR8 reporter cells NF-κB/SEAP; format: cell-based; conditions: 1 μg/ml or indicated concentrations TLR8-506 + 1 μM ODN, 24 h
T2 construct: host or cells: HEK-Blue-hTLR8 (HEK293)
T2 sequence (Q9NR97 27-1041): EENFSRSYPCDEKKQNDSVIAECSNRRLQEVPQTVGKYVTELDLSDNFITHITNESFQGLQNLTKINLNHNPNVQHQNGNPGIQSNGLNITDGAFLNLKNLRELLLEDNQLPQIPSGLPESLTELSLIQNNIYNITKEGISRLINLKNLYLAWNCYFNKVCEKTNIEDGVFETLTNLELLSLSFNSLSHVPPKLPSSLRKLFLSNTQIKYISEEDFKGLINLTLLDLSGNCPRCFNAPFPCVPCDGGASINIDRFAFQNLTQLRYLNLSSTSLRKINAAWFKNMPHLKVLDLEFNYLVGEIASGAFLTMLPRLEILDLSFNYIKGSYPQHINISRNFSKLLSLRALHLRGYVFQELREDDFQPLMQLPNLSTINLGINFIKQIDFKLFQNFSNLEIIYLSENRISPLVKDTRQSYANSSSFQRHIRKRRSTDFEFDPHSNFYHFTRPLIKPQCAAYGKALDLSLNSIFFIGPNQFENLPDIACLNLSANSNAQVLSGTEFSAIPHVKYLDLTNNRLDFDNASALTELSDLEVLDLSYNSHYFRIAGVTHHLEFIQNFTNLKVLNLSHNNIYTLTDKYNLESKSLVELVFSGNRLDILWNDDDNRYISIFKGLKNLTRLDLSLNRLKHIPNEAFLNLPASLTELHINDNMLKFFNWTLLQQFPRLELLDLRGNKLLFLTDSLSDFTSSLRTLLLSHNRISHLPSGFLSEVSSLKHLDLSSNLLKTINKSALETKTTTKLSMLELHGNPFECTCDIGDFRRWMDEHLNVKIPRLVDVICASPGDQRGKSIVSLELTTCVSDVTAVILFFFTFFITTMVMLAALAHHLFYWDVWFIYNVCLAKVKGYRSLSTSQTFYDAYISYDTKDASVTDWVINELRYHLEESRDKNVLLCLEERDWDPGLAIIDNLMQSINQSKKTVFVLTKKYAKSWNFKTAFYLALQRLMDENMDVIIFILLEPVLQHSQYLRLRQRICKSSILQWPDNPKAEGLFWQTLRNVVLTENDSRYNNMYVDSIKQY
Experimental: as §1, §2

mouse TLR7 (mTLR7) = target: T3, mouse TLR7 (mTLR7) (Mus musculus, UniProt P58681); assay: HEK mTLR7 reporter cells NF-κB/SEAP; format: cell-based; conditions: soluble ligand alone, 24 h
T3 construct: host or cells: HEK-Blue-mTLR7 (HEK293)
T3 sequence (P58681 27-1050): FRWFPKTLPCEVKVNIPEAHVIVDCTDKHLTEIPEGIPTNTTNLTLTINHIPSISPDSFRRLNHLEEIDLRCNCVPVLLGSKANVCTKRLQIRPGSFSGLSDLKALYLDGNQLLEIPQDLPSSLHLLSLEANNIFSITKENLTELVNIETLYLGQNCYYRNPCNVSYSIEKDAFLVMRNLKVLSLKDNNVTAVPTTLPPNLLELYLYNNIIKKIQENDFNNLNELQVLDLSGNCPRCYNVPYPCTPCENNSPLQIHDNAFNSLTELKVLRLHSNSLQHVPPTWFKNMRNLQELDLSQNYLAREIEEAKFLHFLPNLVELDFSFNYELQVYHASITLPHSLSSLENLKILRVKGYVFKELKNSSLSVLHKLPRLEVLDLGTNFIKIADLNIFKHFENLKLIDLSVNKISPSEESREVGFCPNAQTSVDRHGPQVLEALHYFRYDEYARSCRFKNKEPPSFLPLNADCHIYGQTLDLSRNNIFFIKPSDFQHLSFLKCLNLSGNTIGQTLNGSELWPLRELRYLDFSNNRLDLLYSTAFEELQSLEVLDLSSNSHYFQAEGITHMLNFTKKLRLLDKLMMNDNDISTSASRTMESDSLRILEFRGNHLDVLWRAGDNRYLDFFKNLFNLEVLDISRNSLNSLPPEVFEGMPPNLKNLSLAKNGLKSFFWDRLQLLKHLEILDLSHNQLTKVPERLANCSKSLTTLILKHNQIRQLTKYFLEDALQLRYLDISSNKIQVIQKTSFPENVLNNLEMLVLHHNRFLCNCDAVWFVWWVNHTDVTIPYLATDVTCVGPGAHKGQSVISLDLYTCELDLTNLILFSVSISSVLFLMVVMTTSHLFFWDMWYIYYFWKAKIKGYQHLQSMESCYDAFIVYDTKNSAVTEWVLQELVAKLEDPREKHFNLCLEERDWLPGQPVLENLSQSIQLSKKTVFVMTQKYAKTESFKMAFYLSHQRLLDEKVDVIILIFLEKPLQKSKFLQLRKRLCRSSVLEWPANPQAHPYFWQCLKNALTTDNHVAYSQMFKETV
Experimental: as §1
Raw Blue cells which respond to both murine TLR-7 and TLR-8 are also included to assess the overall modulatory effect. half-maximal effective concentration (EC50) and potency of several classic TLR7/8 ligands were evaluated in murine TLR7 and TLR8 reporter cells.

Molecule	IMQ-induced NF-κB activation (SEAP) in the presence of the ODN ([1]; 24 h)	activity of the ODN alone in Raw Blue cells ([1]; without IMQ)	IMQ-mediated NF-κB stimulation in hTLR7 cells in the presence of the ODN (human TLR7 (hTLR7))	TLR8-506 stimulation of hTLR8 cells in the presence of the ODN (human TLR8 (hTLR8))	NF-κB activation of Raw Blue cells by the ligand alone ([1]; ligand alone, 24 h)	mTLR7 activation by the ligand alone (mouse TLR7 (mTLR7))
5′-L-TGCTCCTGGAGGGGTTGT-3′ (DNA NTGCTCCTGGAGGGGTTGT; 5' lipid modification; Lipid-modified synthetic oligonucleotide; (1)..(1) n=placeholder indicative of lipid portion of conjugate, as described in specification; lipid is variable, depending on embodiment(s)) [lipo IRS 954]	enhanced TLR7-mediated activation; also recorded: more than twofold increase in TLR-7-mediated activation	no activity	markedly enhanced IMQ-mediated NF-κB stimulation	partially inhibited the TLR-8 signaling	–	–
5′-TGCTCCTGGAGGGGTTGT-3′ (DNA dT*dG*dC*dT*dC*dC*dT*dG*dG*dA*dG*dG*dG*dG*dT*dT*dG*dT) [IRS 954]	no detectable NF-κB was observed	–	–	–	–	–
CC(C)Cn1cnc2c(N)nc3ccccc3c21 [IMQ, imiquimod]	–	–	–	–	resulted in secretion of NF-κB	activated mTLR-7 at different concentrations
lipo ODN 2087: lipid modified ODN 2087 (5′-TCCTGAGCTTGAAGT-3′) (DNA {Lipid}-dT*dC*dC*dT*dG*dA*dG*dC*dT*dT*dG*dA*dA*dG*dT)	–	–	markedly enhanced IMQ-mediated NF-κB stimulation	partially inhibited the TLR-8 signaling	–	–
